One may read the melting point as the temperature, or range, at which the solid turns liquid.

As to `CCOC(=O)[C@@H](O)[C@@H]1OC(=O)c2cc(OC)c(OC)cc21`, the melting point lay within 144 to 146 °C. To `CCCOc1cccc(C=C(C=O)C(C=O)=Cc2cccc(OCCC)c2)c1` belongs 93 to 94 °C; to `O=C(O)[C@@H]1Cc2cc(Cl)cc(Cl)c2O[C@@H]1C(F)(F)F`, 100 to 101 °C. `COc1cccc(-c2ncc3n2CC(=O)N(C)C3)c1` gave a melting point of 115 to 117 °C. To `Cn1c(COc2ccc(CC3SC(=O)NC3=O)cc2)nc2cc(Cl)cnc21` (stereo not given) belongs 203 to 205 °C; to `Cc1cc(Nc2ccnc(Nc3ccc(S(=O)(=O)N(CCNC(=O)OC(C)(C)C)C4CCN(C(=O)OC(C)(C)C)CC4)cc3)n2)ccc1F`, 242 to 244 °C.

Compound `COc1c(SCc2ccco2)ccnc1CO` displayed a melting point of 56 to 58 °C. `COc1ccc(C(=O)N(C(=O)c2ccc(OC)cc2)c2nc3ccc(N(C)C)cc3c(NCc3ccccc3)c2C#N)cc1` gave a melting point of 156 °C. `CCN(CC)c1nc(Cl)nc2ccccc12` showed a melting point of 68 to 70 °C. Then `NC(=O)c1c(Cl)c(-c2ccccc2)n2c1CN(S(=O)(=O)c1cccs1)CC2`, with 240 to 242 °C; and `O=c1c2ccc(Cl)cc2[nH]c2c(O)nn(Cc3cc4ccccc4s3)c(=O)c12`, with more than 300 °C; and `O=[N+]([O-])c1ccc(Sc2nccn2Cc2ccccc2)cc1`, with 122 to 123 °C. Consider `CCOC(=O)C1=CC(=O)CCC1S(=O)(=O)Nc1ccc(F)cc1Cl` (stereo not given), for which the melting point is 128 to 130 °C.

In the case of `CCN(CC)C(=O)COc1nc(C(F)(F)F)ns1`, the melting point is 60 °C. `CS(=O)(=O)Nc1cc(O)c2c(c1)C(=O)c1cccc(O)c1C2=O` came in with a melting point of more than 300 °C. The compound `Cn1c2ccccc2c2sc3ccccc3c21` showed a melting point of 175 to 176 °C. Consider `CC1=NN(c2cc(-c3ccnc(Nc4cccc(Cl)c4)n3)ccn2)C(=O)CC1`, for which the melting point was 189 to 192 °C. To `O=C(NCCCCc1cccnc1)c1ccc(-c2cccc(O)c2)cc1` belongs 150 to 152 °C; to `Cc1nc(Oc2ccc(Cl)cc2)c2ccccc2c1CC(=O)O`, 192 to 195 °C; to `CC(=O)SCC(Cc1ccccc1)NC(=O)OC(C)(C)C` (stereo not given), 92 to 94 °C. Then `COc1c2c(cc3ccc(OC(C)=O)cc13)-c1ccc(OC(C)=O)cc1CO2`, with 165 to 167 °C; and `CC(C)CC(NC(=O)Cc1ccc(NC(=O)Nc2ccccc2Cl)cc1)c1cc(CCC(=O)O)on1` (stereo not given), with 143 to 145 °C. Then `CCCN(CCC)C(=O)NC(CS)Cc1ccccc1` (single isomer, unassigned; (+)), with 68 °C; and `Cc1ccc(C#Cc2ccc(NC(=O)OC(C)(C)C)c(N)c2)cc1`, with 175 °C. As for `CN1C(=O)C(C(=O)Nc2ccccn2)Sc2ccccc21` (stereo not given), the melting point is 141 to 143 °C. The compound `CC1C(=O)N(c2ccc(OCc3ccccc3)cc2)C(=S)N1c1ccccc1` (stereo not given) yielded a melting point of 155 °C. The compound `O=C(CN1CSCC1=O)N1CCC(c2c[nH]c3ccccc23)CC1` came in with a melting point of 174 to 175 °C. In the case of `CCc1cccc2c3c([nH]c12)C(CC)(CC(O)O)OCC3` (stereo not given), the melting point is 158 to 159 °C. Compound `Cc1c(F)c(F)c(C(=O)NC(C(C)C)C(C)C)c(F)c1F` came in with a melting point of 184 to 187 °C. In turn, `COc1ccc(Cl)c(OC)c1C(=O)O` came in with a melting point of 132 to 133 °C. Compound `CC(=O)c1ccc(S(=O)(=O)NC(C)(C)C(=O)O)cc1` came in with a melting point of 157 to 158 °C. Take `O=c1c(C(F)(F)F)cn(Cc2ccccc2)c(=O)n1CCCCl`: the melting point was in the range of 100 to 101 °C.

The compound `COc1ccc(N(C(=O)CN2C(=O)C(CO)C(=O)N(c3ccccc3)c3ccccc32)C(C)C)cc1` (stereo not given) gave a melting point of 136 to 139 °C. Then `NC(=O)C(N)c1ccc(F)cc1F` (stereo not given), with 143 °C; and `CC(=O)Nc1nc(C)c(S(=O)(=O)N2CCC(O)C2)s1` (racemic), with 241 °C; and `Cn1c(COc2ccc(CC3SC(=O)NC3=O)cc2)nc2ccc(Oc3ccc4cccc(NC(=O)NS(=O)(=O)c5ccccc5)c4c3)cc21` (stereo not given), with 199 to 205 °C. Take `O=C(Nc1cccc(-c2nnn[nH]2)c1)NC1N=C(c2ccccc2F)c2cccc(Cl)c2N(CC(=O)N2CC3CCC(CC3)C2)C1=O` (stereo not given): the melting point is 172 to 180 °C.

Compound `O=C(COc1ccccc1)NC1CNC1=O` (stereo not given) displayed a melting point of 153 to 155 °C.

`Nc1nc(NCCc2ccc(Cl)cc2)sc1C(=O)c1ccccc1[N+](=O)[O-]` gave a melting point of 117 to 120 °C. `Cn1ccnc1-c1ccc(O)cc1` had a melting point of 239 to 242 °C. In turn, `CC(C)c1ccc2c(c1)[C@H]1Cc3ccccc3[C@H]1N2` (relative stereo) showed a melting point of 104 °C. For the compound `OCCSCc1ccc(-c2ccc(CSCCO)cc2)cc1`, the melting point was 152 °C. In turn, `CCOC(=O)[C@H](CO)NC(=O)[C@H](CC(=O)OCc1ccccc1)NC(=O)OC(C)(C)C` displayed a melting point of 96 to 97 °C. As to `O=c1c(Br)c(O)c2cccnc2n1-c1ccccc1`, the melting point is more than 280 °C.

In turn, `O=C1C(=CO)C(c2ccccc2[N+](=O)[O-])=NN1c1ccc(Cl)cc1` came in with a melting point of 155 to 157 °C. `CCCN1CCN(c2cc3ccccc3c(=O)[nH]2)CC1` showed a melting point of 208 to 209 °C.

In turn, `CC(C)(C)OC(=O)NCCC(=O)NCCC(=O)OCc1ccccc1` had a melting point of 84 to 85 °C. With `O=C(/C=C/c1ccc(F)c(F)c1)N1CCN(C(=O)c2cc(C(F)(F)F)cc(C(F)(F)F)c2)[C@H](Cc2c[nH]c3ccccc23)C1`, the melting point lay within 214 to 217 °C.

On to `Cn1cc(C2=C(c3cn(C)c4cc(CO)ccc34)C(=O)NC2=O)c2ccccc21`, for which the melting point was in the range of 245 to 246 °C. Compound `O=C1c2c(O)ccc(O)c2C(=O)c2c(NCCN3CCCC3)ccc(NCCN3CCCC3)c21` returned a melting point of 193 to 196 °C. Compound `CCOC(=O)Cn1cc2c(n1)CCN(C(=O)OC(C)(C)C)C2` returned a melting point of 90 to 91 °C. For the compound `O=C(CCCN1CCCCC1)c1ccc2c(c1)C(=O)c1cc(C(=O)CCCN3CCCCC3)ccc1-2`, the melting point is 168 to 170 °C.

Turning to `O=C1NCCN1C1CCN(CCC2COc3ccccc3O2)CC1` (stereo not given), the melting point lay in the range of 155 to 157 °C.

Compound `Cc1nc(-n2ccc(OCc3ccc(OC(F)F)cc3)cc2=O)sc1C(=O)NCc1ccc(F)cc1` had a melting point of 242 to 244 °C.

The compound `O=C(Nc1cccc(-c2ccnc3c(C(=O)c4cccs4)cnn23)c1)c1c(Cl)cccc1Cl` displayed a melting point of 245 to 246 °C. Take `CC(=O)SCc1ccc(I)cc1`: the melting point was in the range of 40 to 41 °C. Consider `Cn1cc(C(=O)NCc2ccc(Cl)cc2)c(=O)c2cc(CCCO)cc(OCCO)c21`, for which the melting point lay within 175 to 179 °C. In turn, `Cc1cc(C(=O)N2Cc3cccn3Cc3ccccc32)ccc1[N+](=O)[O-]` came in with a melting point of 246 to 248 °C. Compound `ClCCCc1nnnn1C1CCCCC1` gave a melting point of 82 to 85 °C.

`CCCCc1nc(Cl)c(C(=O)O)n1Cc1ccc2oc(-c3ccccc3C#N)c(OC)c2c1`: the melting point is 158 to 160 °C. `CN1CCN(c2ncc(-c3cc(Cl)cc(Cl)c3Cl)c(N)n2)CC1` returned a melting point of 162 to 164 °C. `O=C1SC(Cc2ccc(OCCn3ccc4cccnc43)cc2)C(=O)N1C(c1ccccc1)(c1ccccc1)c1ccccc1` (stereo not given) gave a melting point of 168 to 169 °C.

`Cc1nc2c(N)nc3cc(OCCNC(=O)C(C)C)ccc3c2n1CC(C)C` had a melting point of 205 to 206 °C. `COc1ccc(-n2c(-c3ccc([N+](=O)[O-])cc3)nnc2C(C)O)cc1` (stereo not given): the melting point came out at 140 °C. To `Cn1nnnc1SCC1c2cc(OC(=O)c3cccs3)c(OC(=O)c3cccs3)cc2CCN1C(=O)OCC(Cl)(Cl)Cl` (stereo not given) belongs 139 to 146 °C. As to `NC(=S)Nc1c(Cl)cccc1Cl`, the melting point was 158 to 160 °C. To `CC(C)c1nc(Cl)c2c(-c3ccc([N+](=O)[O-])o3)nn(C)c2n1` belongs 112 °C; to `BrCCC1c2ccccc2-c2ccccc21`, 48 to 49 °C. As for `NC(=O)c1[nH]c2ccc(Cl)cc2c1S(=O)(=O)c1cc(Cl)cc(Cl)c1`, the melting point was 258 to 260 °C.

Compound `N#Cc1ncc(-c2ccccc2)nc1Cl` came in with a melting point of 143 to 145 °C. With `CCCc1c(OCCCOCCCOc2ccc3ccc(OCC(=O)O)cc3c2C(C)=O)ccc(C(C)=O)c1O`, the melting point lay in the range of 101 to 104 °C.

`O=C1OC(COc2ccc(Cl)cc2Cl)OC1c1ccccc1` (stereo not given) registered a melting point of 105 to 107 °C. The compound `N#Cc1ccccc1S(=O)(=O)c1ccc(N)cc1` showed a melting point of 177 to 179 °C.

As to `CCCCCCNc1cc(-c2nc(=O)c3ccccc3s2)ccn1`, the melting point was 134 to 135 °C.

In the case of `FC(F)(F)c1cc(-c2ccc(Cl)cc2)nc2c(-c3cccnc3)cnn12`, the melting point worked out at 188 °C. As for `Nc1nc(N)c2ncn(COCCO)c2n1`, the melting point is 183 to 184 °C. Compound `COc1cccc2c1nc(C(F)F)n2-c1nc(NC2CCN(C(=O)OC(C)(C)C)CC2)c([N+](=O)[O-])c(N2CCOCC2)n1` returned a melting point of 229 to 231 °C. Regarding `CCOc1c2c(c([N+](=O)[O-])c(OCC)c1OCC)C(=O)OC2`, the melting point lay in the range of 82.5 to 84.5 °C. As for `CC1(C)Oc2c(c(=O)n(Cc3ccccc3)c3ccccc23)[C@@H](NC(=O)CCCCl)[C@@H]1O` (relative stereo), the melting point is 176 to 178 °C.

As for `Cc1ccnc(Nc2nc(-c3c[nH]nc3C(O)c3ccccc3)cs2)n1` (stereo not given), the melting point worked out at 250 °C.

As for `O=C1CNc2ncc(I)cc2N1Cc1cc(F)ccc1C(F)(F)F`, the melting point was 244 to 245 °C. For the compound `O=C(NC1CCCCC1)NS(=O)(=O)c1ccc2c(c1)CCN(C(=O)N1CCOCC1)CC2`, the melting point was 190 to 191 °C.

Take `Fc1ccc(CN2CCCC(Nc3nccc(-c4c(-c5ccc(F)cc5)nc5sccn45)n3)C2)cc1` (stereo not given): the melting point was 131 to 133 °C. For `CC(C)=C1CC(=O)N(c2cc(F)c(C#N)cc2F)C1=O`, the melting point was 135 °C. Compound `Cc1sc2c(I)c3ccccc3c(-c3ccc(OS(C)(=O)=O)cc3)c2c1C` displayed a melting point of 212 to 213 °C.

For the origin of these results see a melting point compilation (Tetko et al.; mined from patent text by program, amines drawn as free bases though some values may be those of a salt).
